Results on 2 compounds are retold here after US20160128982A1, “ANTIMICROBIAL COMPOSITIONS AND METHODS OF USE” (DERMCARE-VET PTY LTD, priority 2013, published 2016).

For assay [1], the system named is Staphylococcus pseudintermedius. Put plainly: Well diffusion, zone of inhibition on Mueller-Hinton agar. The format is cell-based. As to conditions: 37° C. 18 to 24 hours; for Zone of Inhibition: 50 μL per well. As to the method: (§1) 1. To determine whether propylene glycol was a suitable solvent to solubilize miconazole. A Mueller-Hinton agar (MH) plate containing a well was inoculated with Staphylococcus pseudintermedius and a Sabouraud dextrose agar (SAB) plate containing a 6 mm well was inoculated with Malassezia pachydermatis. The wells were filled with 50 μL propylene glycol and the MH plate were incubated at 37° C. for 18 to 24 hours and the SAB plate was incubated at 30 to 35° C. for 72 hours. The plates were then observed for any inhibition of microbial growth around the well.
(§2) 2. To determine suitable concentrations of miconazole and PHMB, MH agar plates containing wells were inoculated with S. pseudintermedius and SAB plates containing wells were inoculated with M. pachydermatis. The wells were filled with 50 μL of varying concentrations of miconazole or PHMB. The MH plates were incubated at 37° C. for 18 to 24 hours and the SAB plates were incubated at 30 to 35° C. for 48 hours.
(§3) After incubation, the diameter of the zone of inhibition around the well was measured.
On the technique in general: Agar diffusion results depend on both activity and mobility in agar.

The subject of a further assay is Malassezia pachydermatis. Nature of the assay: Well diffusion, zone of inhibition on Sabouraud dextrose agar. In kind it is cell-based. As to the method:
as §1, §2, §3

The next assay has as its system Candida albicans. Put plainly: Agar dilution MIC and FICI (Example 2). The format is cell-based. As to conditions: miconazole alone. On the procedure: (§4) The MIC of PHMB, miconazole and mixtures of PHMB and miconazole were determined by adding varying concentrations of each component or their combination to molten Mueller-Hinton agar and SAB agar. The miconazole was initially dissolved in propylene glycol but dilutions were prepared by diluting this solution with water.
(§5) The concentrations of miconazole, PHMB or combination of PHMB and miconazole tested included:
(§6) A drop of microbial suspension containing one of: • a) Staphylococcus pseudintermedius and • b) Candida albicans
(§7) was added to a MH agar plate and SAB plate respectively of each concentration of each concentration of miconazole, PHMB and combinations thereof and the MH plates were incubated for 24 to 48 hours at 37° C. and the SAB plates were incubated at 20 to 35° C. for 48 hours. Two isolates of Staphylococcus pseudintermedins of different origin were used.
(§8) After incubation the plates were examined to determine the lowest concentration that inhibited growth of the microbe.
(§9) The concentrations were used to calculate the Fractional Inhibitory Concentration Index (FICI) which is a measure of synergism between the components in the combination. The FICI is calculated using the following equations:
(§10) FICMICONAZOLE=MICMICONAZOLE+PHMB/MICMICONAZOLE
(§11) FICPHMB=MICPHMB+MICONAZOLE/MICPHMB
(§12) FICI=FICMICONAZOLE+FICPHMB
(§13) FICI≦0.5 Indicates synergy between components
(§14) FICI>0.5-4.0 indicates no interaction between components
(§15) FICI>4.0 indicates antagonism between components
For orientation: Agar dilution tests growth on a series of plates holding different concentrations.

In assay [2] the test system is Staphylococcus pseudintermedius. Nature of the assay: Agar dilution MIC and FICI (Example 2). The format is cell-based. On the procedure: as §4, §5, §6, §7, §8, §9, §10, §11, §12, §13, §14, §15
Assay [3] relates to S. pseudintermedius isolates. Nature of the assay: Agar dilution MIC and FICI, isolates from dogs (Example 3). As to conditions: miconazole alone. The format is cell-based, Staphylococcus pseudintermedius. As to the method: (§16) The miconazole was initially dissolved in propylene glycol but dilutions were prepared by diluting this solution with water. […] Two isolates of Staphylococcus pseudintermedins of different origin were used. After incubation the plates were examined to determine the lowest concentration that inhibited growth of the microbe. The concentrations were used to calculate the Fractional Inhibitory Concentration Index (FICI) which is a measure of synergism between the components in the combination. The FICI is calculated using the following equations: […]≦0.5 Indicates synergy between components FICI>0.5-4.0 indicates no interaction between components FICI>4.0 indicates antagonism between components The procedure from Example 2 was repeated with different bacterial and fungal isolates obtained from dogs with bacterial or fungal infections. Eight S. pseudintermedius isolates obtained from eight different dogs and three M. pachydermatis isolates from three different dogs were analysed.

Assay [4] has as its system M. pachydermatis isolates. Described as above. The format is cell-based, Malassezia pachydermatis. Particulars: miconazole alone. As to the method:
as §16

With `Clc1ccc(COC(Cn2ccnc2)c2ccc(Cl)cc2Cl)c(Cl)c1` (centres unmarked) [miconazole], the “Zone of Inhibition” value in assay [1] (Miconazole concentration 0.0009%) is 14-17 mm; in assay [1] (Miconazole concentration 0.0019%), 14-16 mm; in assay [1] (Miconazole concentration 0.0039%), 17-18 mm; with Malassezia pachydermatis (Miconazole concentration 0.0009%, 50 μL per well, 30 to 35° C. 48 hours), 25 mm. In addition, the “MIC Micon %” value was determined as 0.00095% in the assay on Candida albicans and 0.00012% in assay [2] (miconazole alone, two isolates of different origin). The “concentration at which an antimicrobial effect begins” value in assay [2] (used alone) was “about 0.00012 wt %”. Moreover, the MIC miconazole in assay [3] (isolate 1), in assay [3] (isolate 2), in assay [3] (isolate 3), in assay [3] (isolate 4), in assay [3] (isolate 5) and in assay [3] (isolate 6) was 0.00012% throughout. Also, the MIC miconazole in assay [3] (isolate 7) was found to be 0.00012%; in assay [3] (isolate 8) it was 0.00012%; in assay [4] (isolate 1), 0.00003%; in assay [4] (isolate 2), 0.00006%; in assay [4] (isolate 3), 0.000015%.
As to `CC(O)CO` (centres unmarked) [propylene glycol], the “inhibition of microbial growth around the well” value in assay [1] (50 μL propylene glycol per well) was “No zone of inhibition”; in the assay with Malassezia pachydermatis (50 μL propylene glycol in 6 mm well, 30 to 35° C. 72 hours), “No zone of inhibition”.
